# In ChEMBL document CHEMBL5257089, “Gamabufotalin Induces Apoptosis and Cytoprotective Autophagy through the mTOR Signaling Pathway in Hepatocellular Carcinoma” (J Nat Prod, 2023):
# Active and inactive are the calls of the source. The rule behind the calls is not given here.
# Columns and labels:
# Huh-7 [1] = experiment: Induction of apoptosis in human Huh-7 cells assessed as early apoptotic cells at 10 nM incubated for 48 hrs in presence of gamabufotalin by Annexin V-FITC/PI staining based flow cytometry method (reference value: 2.8%); format: functional
# Hep 3B2 [2] = experiment: Induction of autophagic flux in human Hep3B cells assessed as rescue of LC3-I accumulation at 10 uM incubated for 48 hrs in presence of gamabufotalin by Western blot analysis; format: functional, cell-based
# Huh-7 [3] = experiment: Induction of autophagy in human Huh-7 cells assessed as rescue of mTOR phosphorylation level at upto 10 nM incubated for 48 hrs in presence of gamabufotalin by immunoblot method; format: functional, cell-based
# Huh-7 [4] = experiment: Induction of apoptosis in human Huh-7 cells assessed as necrotic cells at 10 nM incubated for 48 hrs by Annexin V-FITC/PI staining based flow cytometry method (reference value: 1.0%); format: functional
# Hep 3B2 [5] = experiment: Induction of apoptosis in human Hep3B cells assessed as increase in caspase-3 level at 10 nM incubated for 48 hrs in presence of gamabufotalin by immunoblot analysis; format: functional, cell-based
# Hep 3B2 [6] = experiment: Induction of apoptosis in human Hep3B cells assessed as increase in cleaved caspase-3 level at 10 nM incubated for 48 hrs in presence of gamabufotalin by immunoblot analysis; format: functional, cell-based
# Hep 3B2 [7] = experiment: Induction of autophagic flux in human Hep3B cells assessed as rescue of p62 at 10 uM incubated for 48 hrs in presence of gamabufotalin by Western blot analysis; format: functional, cell-based
# Huh-7 [8] = experiment: Induction of apoptosis in human Huh-7 cells assessed as upregulation of cleaved caspase-3 level […] incubated for 48 hrs in presence of 4,6-dimorpholino-N-(4-nitrophenyl)-1,3,5-triazin-2-amine by immunoblot analysis; format: functional, cell-based
# Hep 3B2 [9] = experiment: Induction of apoptosis in human Hep3B cells assessed as early apoptotic cells at 25 nM incubated for 48 hrs in presence of chloroquine by Annexin V-FITC/PI staining based flow cytometry method (reference value: 1.3%); format: functional
# Huh-7 [10] = experiment: Induction of apoptosis in human Huh-7 cells assessed as upregulation of caspase-3 level […] incubated for 48 hrs in presence of 4,6-dimorpholino-N-(4-nitrophenyl)-1,3,5-triazin-2-amine by immunoblot analysis; format: functional, cell-based
# Huh-7 [11] = experiment: Induction of apoptosis in human Huh-7 cells assessed as early apoptotic cells at 25 nM incubated for 48 hrs in presence of chloroquine by Annexin V-FITC/PI staining based flow cytometry method (reference value: 2.8%); format: functional
# Huh-7 [12] = experiment: Induction of autophagy in human Huh-7 cells assessed as restoration of mTOR phosphorylation expression at 25 uM incubated for 48 hrs in presence of 4,6-dimorpholino-N-(4-nitrophenyl)-1,3,5-triazin-2-amine by immunoblot analysis; format: functional, cell-based
# Hep 3B2 [13] = experiment: Induction of autophagy in human Hep3B cells assessed as reduction in autophagic vesicles at 25 nM incubated for 48 hrs in presence of 4,6-dimorpholino-N-(4-nitrophenyl)-1,3,5-triazin-2-amine by transmission electron microscopy based analysis; format: functional, cell-based
# Huh-7 [14] = experiment: Induction of autophagy in human Huh-7 cells assessed as upregulation of p62 at 25 uM incubated for 48 hrs in presence of 4,6-dimorpholino-N-(4-nitrophenyl)-1,3,5-triazin-2-amine by immunoblot analysis; format: functional, cell-based
# Hep 3B2 [15] = experiment: Induction of apoptosis in human Hep3B cells assessed as increase in caspase-3 expression at upto 25 nM incubated for 48 hrs by Western blot analysis; format: functional, cell-based
# Huh-7 [16] = experiment: Induction of apoptosis in human Huh-7 cells assessed as necrotic cells at 25 nM incubated for 48 hrs by Annexin V-FITC/PI staining based flow cytometry method (reference value: 0.7%); format: functional
# Hep 3B2 [17] = experiment: Induction of apoptosis in human Hep3B cells assessed as necrotic cells at 25 nM incubated for 48 hrs by Annexin V-FITC/PI staining based flow cytometry method (reference value: 0.2%); format: functional
# Hep 3B2 [18] = experiment: Induction of apoptosis in human Hep3B cells assessed as necrotic cells at 25 nM incubated for 48 hrs in presence of chloroquine by Annexin V-FITC/PI staining based flow cytometry method (reference value: 1.2%); format: functional
# Huh-7 [19] = experiment: Induction of apoptosis in human Huh-7 cells assessed as early apoptotic cells at 25 nM measured after 48 hrs in presence of z-VAD-FMK by annexin V-FITC/Propidium iodide staining based flow cytometric analysis (reference value: 2.2%); format: functional
# Huh-7 [20] = experiment: Induction of apoptosis in human Huh-7 cells assessed as increase in PARP expression at upto 25 nM incubated for 48 hrs by Western blot analysis; format: functional, cell-based
# Huh-7 [21] = experiment: Induction of apoptosis in human Huh-7 cells assessed as increase in PARP level at 25 nM incubated for 48 hrs in presence of chloroquine by immunoblot analysis; format: functional, cell-based
# [22] = Toxicity in mouse assessed as effect on body weight at 5 mg/kg,ip administered every second day for 3 weeks; format: organism-based; conditions: in vivo, 504 h
# Hep 3B2 [23] = experiment: Induction of apoptosis in human Hep3B cells assessed as late apoptotic cells at 25 nM measured after 48 hrs by annexin V-FITC/Propidium iodide staining based flow cytometric analysis (reference value: 2.4%); format: functional
# Hep 3B2 [24] = experiment: Induction of apoptosis in human Hep3B cells assessed as viable cells at 25 nM measured after 48 hrs by annexin V-FITC/Propidium iodide staining based flow cytometric analysis (reference value: 95.6%); format: functional; conditions: read-out: Activity
# Huh-7 [25] = experiment: Induction of apoptosis in human Huh-7 cells assessed as late apoptotic cells at 25 nM incubated for 48 hrs by Annexin V-FITC/PI staining based flow cytometry method (reference value: 4.7%); format: functional
# Hep 3B2 [26] = experiment: Induction of apoptosis in human Hep3B cells assessed as early apoptotic cells at 25 nM measured after 48 hrs by Annexin V-FITC/PI staining based flow cytometry method (reference value: 1.3%); format: functional
# Hep 3B2 [27] = experiment: Induction of apoptosis in human Hep3B cells assessed as necrotic cells at 25 nM incubated for 48 hrs by Annexin V-FITC/PI staining based flow cytometry method (reference value: 0.7%); format: functional
# Huh-7 [28] = experiment: Induction of apoptosis in human Huh-7 cells assessed as late apoptotic cells at 15 nM incubated for 48 hrs by Annexin V-FITC/PI staining based flow cytometry method (reference value: 2.2%); format: functional
# Huh-7 [29] = experiment: Induction of autophagic flux in human Huh-7 cells harbouring mCherry-egfp-LC3 assessed as reduction in number of red puncta ratio at 25 nM incubated for 15 mins in presence of chloroquine by laser scanning confocal microscopic analysis; format: functional, cell-based
# Hep 3B2 [30] = experiment: Antitumor activity against human Hep3B cells xenografted in nude mouse model assessed as downregulation of P62 expression at 5 mg/kg,ip administered every second day for 3 weeks by Western blot analysis; format: functional, organism-based
# [31] = Toxicity in mouse assessed as effect on lungs at 5 mg/kg,ip administered every second day for 3 weeks by H and E staining based microscopic method; format: organism-based; conditions: in vivo, 504 h
# Huh-7 [32] = experiment: Induction of apoptosis in human Huh-7 cells assessed as late apoptotic cells at 25 nM incubated for 48 hrs in presence of chloroquine by Annexin V-FITC/PI staining based flow cytometry method (reference value: 4.7%); format: functional
compound,measurement,setting,value
CCN(CC)CCCC(C)Nc1ccnc2cc(Cl)ccc12 (configuration not stated) [CHLOROQUINE],Activity,Huh-7 [1],12.1%
same,Activity,Hep 3B2 [2],Active
same,Activity,Huh-7 [3],Active
same,Activity,Huh-7 [4],1.9%
same,Activity,Hep 3B2 [5],Active
same,Activity,Hep 3B2 [6],Active
same,Activity,Hep 3B2 [7],Active
C[C@]12CC[C@H](O)C[C@H]1CC[C@@H]1[C@@H]2[C@H](O)C[C@]2(C)[C@@H](c3ccc(=O)oc3)CC[C@]12O [GAMABUFOTALIN],Activity,Huh-7 [8],Active
same,Activity,Hep 3B2 [9],17.9%
same,Activity,Huh-7 [10],Active
same,Activity,Huh-7 [11],12.1%
same,Activity,Huh-7 [12],Active
same,Activity,Hep 3B2 [13],Active
same,Activity,Huh-7 [14],Active
same,Activity,Hep 3B2 [15],Active
same,Activity,Huh-7 [16],6.3%
same,Activity,Hep 3B2 [17],0.6%
same,Activity,Hep 3B2 [18],0.8%
same,Activity,Huh-7 [19],3.3%
same,Activity,Huh-7 [20],Active
same,Activity,Huh-7 [21],Active
same,Activity,[22],Non-Toxic
same,Activity,Hep 3B2 [23],13.2%
same,viability at 0.025 µM,Hep 3B2 [24],79.6%
same,Activity,Huh-7 [25],10.2%
same,Activity,Hep 3B2 [26],11.4%
same,Activity,Hep 3B2 [27],0.5%
same,Activity,Huh-7 [28],24.4%
same,Activity,Huh-7 [29],Active
same,Activity,Hep 3B2 [30],Active
same,Activity,[31],Non-Toxic
same,Activity,Huh-7 [32],19.1%
